Tests used:
[1] = test system: HteloDNA (DNA, G4) GGGTTAGGGTTAGGGTTAGGG; test: visible absorbance titration at 405 nm; conditions: 100 mM K+, 10 mM Mg2+, 2 mM Na+; 50 mM MES-LiOH pH 7.0, 2 mM NaOH, 25 °C; 12.5 µM hemin
[2] = test system: dsDNA (DNA, duplex) AGAAGAGAAAGA/TCTTTCTCTTCT; test: visible absorbance titration at 405 nm; conditions: 100 mM K+, 10 mM Mg2+, 2 mM Na+; 50 mM MES-LiOH pH 7.0, 2 mM NaOH, 25 °C; 12.5 µM hemin; 0–250 µM dsDNA, change too small for Ka
[3] = test system: dsDNA (DNA, duplex) AGAAGAGAAAGA/TCTTTCTCTTCT; test: visible absorbance titration at 424 nm; conditions: 100 mM K+, 10 mM Mg2+; 50 mM MES-LiOH pH 7.0, 25 °C; 1.0 µM TMPyP4
[4] = test system: HteloDNA (DNA, G4) GGGTTAGGGTTAGGGTTAGGG; test: visible absorbance titration at 424 nm; conditions: 100 mM K+, 10 mM Mg2+; 50 mM MES-LiOH pH 7.0, 25 °C; 1.0 µM TMPyP4

| Ka [1] | binding [2] | Ka [3] | Ka [4] | Compound |
| --- | --- | --- | --- | --- |
| (5.5 ± 3.1) × 10^4 M^−1 | weak |  |  | C=CC1=C(C)C2=Cc3c(C=C)c(C)c4[n]3[Fe]([Cl])[n]3c(c(C)c(CCC(=O)O)c3=CC3=NC(=C4)C(C)=C3CCC(=O)O)=CC1=N2 |
|  |  | (1.8 ± 0.6) × 10^5 M^−1 | (1.2 ± 0.1) × 10^6 M^−1 | C[n+]1ccc(-c2c3nc(c(-c4cc[n+](C)cc4)c4ccc([nH]4)c(-c4cc[n+](C)cc4)c4nc(c(-c5cc[n+](C)cc5)c5ccc2[nH]5)C=C4)C=C3)cc1 |

Source: paper PMC4431183 (2015)
